Results published in patent publication US5270190A, “Method for producing (R)-malic acid from maleic acid using microbial maleate hydratase” (priority 1992, dated 1993).
Where two headings read alike, the source gives them in different places.

Legend:
[1] = test system: Brevibacterium helvolum ATCC 11822; assay: Growth in basal medium with additions; format: cell-based; conditions: 1% addition to basal medium
Method: (§1) In order to obtain a culture containing a maleate hydratase activity by cultivating microorganism capable of producing this enzyme, usual cultivation methods can be used; namely cultivating in a nutrient medium containing organic compounds as a carbon source, organic and/or inorganic compounds as a nitrogen source, and mineral salts, at pH 4 to 10, at 10° to 40° C. It is preferred to add at least one compound selected from the group consisting of maleic acid and citraconic acid since a culture having high maleate hydratase activity can be obtained by the addition of such compound. The concentration of these compounds to be added in a medium is generally from about 0.1 to 3% by weight, preferably from about 0.5 to 2% by weight. The effect of these compounds is shown in Table 1 hereinbelow and Examples 1 and 2.
(§2) *Basal Medium: NH4 Cl 0.1%, KH2 PO4 0.14%, Na2

maleate hydratase = assay: Induction of maleate hydratase by additions to the basal medium (specific activity of the cell sonicate supernatant); format: cell-based, Brevibacterium helvolum ATCC 11822; conditions: for Specific Activity (amount of (R)-malic acid formed): crude enzyme reacted with maleate at 30° C. for 60 minutes, pH 7.2
Method: as §1, §2
**Determined by the amount of (R)malic acid formed when reaction mixture
(total volume 2,000 μl, pH 7.2) containing 50 mM TrisHCl buffer (1,700
μl), 100 mM maleate (200 μl), and crude enzyme preparation (cells
sonicate supernatant, 100 μl) was reacted at 30° C. for 60

[2] = test system: microbial maleate hydratase; format: biochemical
[3] = test system: microbial maleate hydratase; assay: Action and specificity of the enzyme (substrate); format: biochemical
From the text: The enzyme catalyzes a reaction in which maleic acid is hydrated to form (R)-malic acid.

C/C(=C/C(=O)O)C(=O)O [Citraconic Acid, citraconic acid]
Growth at 68 Hours O.D. (660 nm) [1]: 4.1 | Specific Activity (amount of (R)-malic acid formed) (maleate hydratase; 1% addition to basal medium): 3.13 | Induction Fold (maleate hydratase; 1% addition to basal medium, relative to no addition (1.0)): 4.8

O=C(O)CN(CCN(CC(=O)O)CC(=O)O)CC(=O)O [EDTA]
inhibition of enzyme activity [2]: no inhibition

O=C(O)CI [IAA, iodoacetic acid]
inhibition of enzyme activity [2]: 12%

O=C(O)/C=C\C(=O)O [Maleic Acid, maleic acid]
Growth at 68 Hours O.D. (660 nm) [1]: 4.5 | Induction Fold (maleate hydratase; 1 %): 3.9 | Specific Activity (amount of (R)-malic acid formed) (maleate hydratase; 1% addition to basal medium): 2.56

CCN1C(=O)C=CC1=O [NEM, N-ethylmaleimide]
inhibition of enzyme activity ([2]; inhibitor at 10 mM): 33%

[Na+].[O-][I+3]([O-])([O-])[O-] [NaIO4, sodium metaperiodate]
inhibition of enzyme activity ([2]; inhibitor concentration 1 mM): 17%

O=C(O)c1cc[c]([Hg][Cl])cc1 [PCMB, p-chloromercuribenzoic acid]
inhibition of enzyme activity ([2]; inhibitor concentration 1 mM): 100%

O=S(=O)(F)Cc1ccccc1 [PMSF, phenylmethylsulfonylfluoride]
inhibition of enzyme activity ([2]; inhibitor concentration 1 mM): no inhibition

O=C(O)/C=C/C(=O)O [fumaric acid]
action of the enzyme on the substance as substrate [3]: does not act
